Measurements from patent publication US20160206688A1, “METHODS FOR TREATING BACTEREMIA AND OSTEOMYELITIS USING ORITAVANCIN” (THE MEDICINES COMPANY, priority 2013, published 2016).
Converted amounts (≈) assume the structure as drawn. Read-outs that look alike come from different tables or passages of the source.

Tests used:
[1] = system: E. faecalis; assay: Broth microdilution MIC, European bacteraemia isolates 2010-2012; format: cell-based, Enterococcus faecalis
Outline: (§1)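 Bacteraemia isolates from European, Israeli, Russian, Turkish and Ukrainian hospitals (2010-2012) tested centrally by CLSI M07-A9 broth microdilution in cation-adjusted Mueller-Hinton broth with 0.002% polysorbate-80. QC strains E. faecalis ATCC 29212 and S. aureus ATCC 29213; interpretation per CLSI M100-S23 and EUCAST 2013.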

[2] = system: staphylococcal clinical isolates; assay: as above; format: cell-based, staphylococci
Experimental: A total of 2,904 clinical strains responsible for documented bacteremia among unique hospitalized patients in 38 hospitals in 11 European Union countries. Israel, Russia, Turkey and Ukraine were included in this study (2010-2012). Isolates were submitted to a central monitoring laboratory (JMI Laboratories, North Liberty. Iowa. USA), following previously established protocols. Bacterial species identification was performed by using an automated system (Vitek®2; bioMèrieux, Hazelwood, Mo., USA) or conventional biochemical algorithms, as required.
Isolates were tested for susceptibility by broth microdilution methods following the Clinical and Laboratory Standards Institute (CLSI; M07-A9, 2012) document. Susceptibility testing was performed in cation-adjusted Mueller-Hinton broth (CA-MHB) using dry-form panels manufactured by Thermo Fisher Scientific, formerly TREK Diagnostics Systems/Sensititre (Cleveland. Ohio, USA). These panels provide results equivalent to the CLSI-approved broth microdilution method supplemented with 0.002% polysorbate-80.
Quality assurance was performed by concurrent testing of CLSI-recommended (M100-S23, 2013) strains: E. faecalis ATCC 29212 and S. aureus ATCC 29213. Interpretation of comparator MIC results was in accordance with published CLSI (M100-S23) and European Committee on Antimicrobial Susceptibility Testing (EUCAST, 2013) criteria.

[3] = system: exponentially-growing S. aureus; conditions: within 15 minutes to 2 hours; MSSA, MRSA, and VRSA; cited from earlier work
[4] = system: MDR SA; assay: Microdilution MIC against MDR SA by specimen source; format: cell-based, S. aureus
Experimental: 456 clinical, single-patient, non-consecutive, MDR SA isolates from the known specimen sources collected in 2011-2012 were analyzed. MDR was defined as resistant to ≧3 of the following: erythromycin, clindamycin, gentamicin, levofloxacin, and trimethoprim/sulfamethoxazole. 382 were MRSA and 74 were MSSA. MICs were determined by microdilution testing in accordance with CLSI M7 and M100 guidelines. Although other comparator drugs were tested, this analysis focuses on the activities of ORI, VAN, DAP, and LZD.

[5] = Tolerability and laboratory findings in compassionate use subject; format: in vivo, human
Experimental: (§2) In response to a compassionate use request, oritavancin was administered to a subject having bacteremia.
(§3) The demographics of the subject included the following: […]; […]; […]; weight—190 lb; height—70 inches. The subject's medical history included the following: CAD s/p CABG 8/08 (SVG to OM1, SVG to PDA); severe AS s/p bioprosthetic AVR 8/08; lumbar discectomy and fusion February 2011, hardware removed Jan. 11, 2013; PVD S/p bilateral CEA 2010; CKD s/p renal artery stenting December 2011, Baseline Cr approx 3.0 s; HTN; CHF; HLD; mild pulmonary fibrosis; BPH; GERD; arthritis.
(§4) Treatment as of Feb. 8, 2013: oritavancin (1200 mg IV, Q2D×3 times, then QW×5 times).

[6] = system: E. faecium; assay: Broth microdilution MIC, European bacteraemia isolates 2010-2012; format: cell-based, Enterococcus faecium
Outline: as §1

[7] = system: vancomycin-resistant enterococcal bacteremia; assay: Blood culture follow-up of compassionate use subject treated with oritavancin; format: in vivo, human
Experimental: as §2, §3
The subject was diagnosed with: 1) vancomycin-resistant enterococcal bacteremia with intolerance of other antibiotics; and 2) possible spinal osteomyelitis.
as §4
Last blood culture was Feb. 4, 2013 (negative). Attending physician will take blood sample for culture Feb. 11, 2013 and weekly thereafter.

[8] = E. faecalis (445), at ≦0.008 mg/L
[9] = Enterococcus faecalis, read-out: cumulative % inhibited at MIC
[10] = collection of staphylococcal clinical isolates, regardless of the methicillin susceptibility pattern
[11] = E. faecium (315), at ≦0.008 mg/L
[12] = E. faecium, VanA-phenotype (53), at ≦0.008 mg/L
[13] = E. faecium, Vancomycin-susceptible (257), at ≦0.008 mg/L
[14] = Enterococcus faecium, Table 1, E. faecium (315)
[15] = Enterococcus faecium, Table 1, E. faecium, VanA-phenotype (53)
[16] = Enterococcus faecium, Table 1, E. faecium, Vancomycin-susceptible (257)
[17] = Enterococcus faecium, Table 2, E. faecium Vancomycin-resistant (VanA-phenotype) (153)
[18] = Enterococcus faecium, Table 2, E. faecium Vancomycin-susceptible (257)

Compound: CN[C@H](CC(C)C)C(=O)N[C@H]1C(=O)N[C@@H](CC(N)=O)C(=O)N[C@H]2C(=O)N[C@H]3C(=O)N[C@H](C(=O)N[C@H](C(=O)O)c4cc(O)cc(O)c4-c4cc3ccc4O)[C@H](O[C@H]3C[C@](C)(N)[C@@H](O)[C@H](C)O3)c3ccc(c(Cl)c3)Oc3cc2cc(c3O[C@@H]2O[C@H](CO)[C@@H](O)[C@H](O)[C@H]2O[C@H]2C[C@](C)(NCc3ccc(-c4ccc(Cl)cc4)cc3)[C@@H](O)[C@H](C)O2)Oc2ccc(cc2Cl)[C@H]1O [Oritavancin, N-(4-(4-chlorophenyl)benzyl)A82846B]
- Number inhibited at MIC ([1]; E. faecalis (445), at 0.015 mg/L): 204
- Number inhibited at MIC ([1]; E. faecalis (445), at 0.03 mg/L): 89
- Number inhibited at MIC ([1]; E. faecalis (445), at 0.06 mg/L): 30
- Number inhibited at MIC ([1]; E. faecalis (445), at 0.12 mg/L): 13
- Number inhibited at MIC ([1]; E. faecalis (445), at 0.25 mg/L): 4
- Number inhibited at MIC ([1]; E. faecalis (445), at 0.5 mg/L): 1
- Number inhibited at MIC [1, 8]: 104
- cumulative % inhibited at MIC [1, 8]: 23.4%
- MIC50 ([1]; Enterococcus faecalis): 0.015 µg/mL (≈ 0.00837 µM)
- MIC90 ([1]; Enterococcus faecalis): 0.06 µg/mL (≈ 0.0335 µM)
- MIC ([1]; Enterococcus faecalis, read-out: MIC values): 0.12 to 0.5 µg/mL (≈ 0.0669 to 0.279 µM)
- inhibition at 0.015 µg/mL [1, 9]: 69.2%
- inhibition at 0.03 µg/mL [1, 9]: 89.2%
- inhibition at 0.06 µg/mL [1, 9]: 96%
- inhibition at 0.12 µg/mL [1, 9]: 98.9%
- inhibition at 0.25 µg/mL [1, 9]: 99.8%
- inhibition at 0.5 µg/mL [1, 9]: 100%
- MIC 50% ([1]; Table 1, E. faecalis (445)): 0.015 µg/mL (≈ 0.00837 µM)
- MIC 90% ([1]; Table 1, E. faecalis (445)): 0.06 µg/mL (≈ 0.0335 µM)
- MIC Range ([1]; Table 2, E. faecalis (445), includes four VanA-phenotype strains): ≦0.008-0.5 mg/L
- concentration inhibiting all strains ([1]; all E. faecalis, including resistant subsets): ≤ 0.5 mg/L
- concentration inhibiting all strains ([2]; all staphylococci, including resistant subsets): ≤ 0.25 mg/L
- MIC50 [2, 10]: 0.03 µg/mL (≈ 0.0167 µM)
- MICE [2, 10]: 0.06 mg/L
- effect of methicillin-resistance phenotype on in vitro activity ([2]; staphylococci): not affected
- reduction (bactericidal activity) [3]: ≥ 3 log
- MIC50 ([4]; Blood, n = 108): 0.03 µg/mL (≈ 0.0167 µM)
- MIC90 ([4]; Blood, n = 108): 0.12 µg/mL (≈ 0.0669 µM)
- Mode (MIC) ([4]; Blood, n = 108): 0.03 µg/mL
- Range (MIC) ([4]; Blood, n = 108, in µg/mL): 0.015-0.25
- MIC50 ([4]; Respiratory, N = 157): 0.03 µg/mL (≈ 0.0167 µM)
- MIC90 ([4]; Respiratory, N = 157): 0.06 µg/mL (≈ 0.0335 µM)
- Mode (MIC) ([4]; Respiratory, N = 157): 0.03 µg/mL
- Range (MIC) ([4]; Respiratory, N = 157, in µg/mL): 0.008-0.25
- MIC50 ([4]; Skin/Wound, N = 191): 0.03 µg/mL (≈ 0.0167 µM)
- MIC90 ([4]; Skin/Wound, N = 191): 0.06 µg/mL (≈ 0.0335 µM)
- Mode (MIC) ([4]; Skin/Wound, N = 191): 0.03 µg/mL
- Range (MIC) ([4]; Skin/Wound, N = 191): ≦0.002-0.25
- creatinine ([5]; last post-dose, reported Feb. 11, 2013, pre-treatment levels 2.8 to 3): 3.1
- tolerability ([5]; reported Feb. 20, 2013): tolerating oritavancin well without the adverse events from their previous antibiotics
- creatinine ([5]; reported Feb. 20, 2013, went down from 3.1): 1.6
- Number inhibited at MIC ([6]; E. faecium (315), at 0.015 mg/L): 25
- Number inhibited at MIC ([6]; E. faecium (315), at 0.03 mg/L): 12
- Number inhibited at MIC ([6]; E. faecium (315), at 0.06 mg/L): 6
- Number inhibited at MIC ([6]; E. faecium (315), at 0.12 mg/L): 3
- Number inhibited at MIC [6, 11]: 269
- cumulative % inhibited at MIC [6, 11]: 85.4%
- Number inhibited at MIC ([6]; E. faecium, VanA-phenotype (53), at 0.015 mg/L): 19
- Number inhibited at MIC ([6]; E. faecium, VanA-phenotype (53), at 0.03 mg/L): 12
- Number inhibited at MIC ([6]; E. faecium, VanA-phenotype (53), at 0.06 mg/L): 6
- Number inhibited at MIC ([6]; E. faecium, VanA-phenotype (53), at 0.12 mg/L): 3
- Number inhibited at MIC [6, 12]: 13
- cumulative % inhibited at MIC [6, 12]: 24.5%
- Number inhibited at MIC ([6]; E. faecium, Vancomycin-susceptible (257), at 0.015 mg/L): 6
- Number inhibited at MIC [6, 13]: 251
- cumulative % inhibited at MIC [6, 13]: 97.7%
- MIC50 [6, 14]: ≤ 0.008 µg/mL
- MIC90 [6, 14]: 0.015 µg/mL (≈ 0.00837 µM)
- MIC50 [6, 15]: 0.015 µg/mL (≈ 0.00837 µM)
- MIC90 [6, 15]: 0.06 µg/mL (≈ 0.0335 µM)
- MIC50 [6, 16]: ≤ 0.008 µg/mL
- MIC90 [6, 16]: ≤ 0.008 µg/mL
- MIC50 [6, 17]: 0.015 µg/mL (≈ 0.00837 µM)
- MIC90 [6, 17]: 0.06 µg/mL (≈ 0.0335 µM)
- MIC50 [6, 18]: ≤ 0.0081 µg/mL
- MIC90 [6, 18]: ≤ 0.008 µg/mL
- MIC ([6]; Enterococcus faecium, read-out: MIC values): ≤ 0.008 µg/mL
- inhibition at 0.015 µg/mL ([6]; Enterococcus faecium, read-out: cumulative % inhibited at MIC, E. faecium (315), at 0.015 mg/L): 93.3%
- inhibition at 0.03 µg/mL ([6]; Enterococcus faecium, read-out: cumulative % inhibited at MIC, E. faecium (315), at 0.03 mg/L): 97.1%
- inhibition at 0.06 µg/mL ([6]; Enterococcus faecium, read-out: cumulative % inhibited at MIC, E. faecium (315), at 0.06 mg/L): 99.1%
- inhibition at 0.12 µg/mL ([6]; Enterococcus faecium, read-out: cumulative % inhibited at MIC, E. faecium (315), at 0.12 mg/L): 100%
- inhibition at 0.015 µg/mL ([6]; Enterococcus faecium, read-out: cumulative % inhibited at MIC, E. faecium, VanA-phenotype (53), at 0.015 mg/L): 60.4%
- inhibition at 0.03 µg/mL ([6]; Enterococcus faecium, read-out: cumulative % inhibited at MIC, E. faecium, VanA-phenotype (53), at 0.03 mg/L): 83%
- inhibition at 0.06 µg/mL ([6]; Enterococcus faecium, read-out: cumulative % inhibited at MIC, E. faecium, VanA-phenotype (53), at 0.06 mg/L): 94.3%
- inhibition at 0.12 µg/mL ([6]; Enterococcus faecium, read-out: cumulative % inhibited at MIC, E. faecium, VanA-phenotype (53), at 0.12 mg/L): 100%
- inhibition at 0.015 µg/mL ([6]; Enterococcus faecium, read-out: cumulative % inhibited at MIC, E. faecium, Vancomycin-susceptible (257), at 0.015 mg/L): 100%
- MIC Range ([6]; Table 2, E. faecium Vancomycin-resistant (VanA-phenotype) (153)): ≦0.008-0.12 mg/L
- MIC Range ([6]; Table 2, E. faecium Vancomycin-susceptible (257)): ≦0.008-0.015 mg/L
- MIC50 and MIC90 lower than daptomycin and linezolid ([6]; VanA-phenotype E. faecium): 32- to 64 fold
- concentration inhibiting all strains ([6]; VanA-phenotype E. faecium strains): ≤ 0.12 mg/L
- concentration inhibiting all strains ([6]; all E. faecium, including resistant subsets): ≤ 0.12 mg/L
- activity relative to wild-type vancomycin-susceptible population ([6]; vancomycin-resistant (VanA-type) E. faecium strains): at least two-fold less active
- blood culture ([7]; Feb. 11, 2013 sample, after two 1200 mg IV doses): negative
- blood culture ([7]; samples taken Feb. 19, 2013, culture duration is 5 days): so far negative
